Measurements as given in article PMC11222147, “Host defence peptide plectasin targets bacterial cell wall precursor lipid II by a calcium-sensitive supramolecular mechanism” (Nature Microbiology, 2024).
Where a SMILES comes first, the peptide text is derived from it. Bridges are numbered along the chain shown (N, C = ends).

The molecules below were run on S. simulans 22 (assay: MIC assays under standard conditions). Conditions: Supplementary Table 1; cation-adjusted MHB, 37 °C, 16–20 h.
Type: cell-based, Staphylococcus simulans
Description: Plectasin and analogues were serially diluted in cation-adjusted Mueller–Hinton broth (MHB) in round-bottom polypropylene 96-well plates (50 µl per well). Selected bacterial strains were grown from glycerol stocks on blood agar plates. Individual colonies were inoculated in TSB and incubated at 37 °C while shaking until OD600 reached 0.5. Bacterial suspensions were then diluted 100 times in cation-adjusted MHB and distributed (50 μl per well) over the microplate containing the diluted plectasin solutions. Plates were covered by a gas-permeable adhesive membrane and incubated at 37 °C while shaking. MICs were determined by visual inspection after 16–20 h (Staphylococcus) or 20–24 h (Streptococcus). For Streptococcus strains, the broth was additionally supplemented with 5% lysed horse blood, and the microplates were incubated under 5% CO2 atmosphere. In the assays, we used the following strains: S. simulans, S. pneumoniae serotype 8, S. pneumoniae ATCC6305 and Streptococcus pyogenes M3.

| SMILES | Minimum inhibitory concentration, S. simulans |
| --- | --- |
| CC[C@H](C)[C@@H]1NC(=O)[C@H](CO)NC(=O)[C@H](CCCCN)NC(=O)[C@@H]2CSSC[C@@H](C(=O)N[C@@H](Cc3ccc(O)cc3)C(=O)O)NC(=O)[C@H](CCCCN)NC(=O)[C@@H]3CSSC[C@H](NC(=O)[C@H](CCC(N)=O)NC(=O)[C@H](CCSC)NC(=O)[C@H](CC(=O)O)NC(=O)[C@H](CC(=O)O)NC(=O)[C@H](CCC(=O)O)NC(=O)[C@H](CC(=O)O)NC(=O)[C@H](Cc4c[nH]c5ccccc45)NC(=O)[C@@H]4CCCN4C(=O)CNC(=O)[C@H](CC(N)=O)NC(=O)[C@@H](NC(=O)CNC(=O)[C@H](Cc4ccccc4)NC(=O)CN)CSSC[C@H](NC(=O)[C@H](Cc4ccc(O)cc4)NC(=O)CNC(=O)CNC(=O)[C@H](CCCCN)NC(=O)[C@H](Cc4c[nH]cn4)NC(=O)CNC(=O)[C@H](CCCCN)NC1=O)C(=O)N[C@@H](C)C(=O)N[C@@H](CCCCN)C(=O)NCC(=O)NCC(=O)N[C@@H](Cc1ccccc1)C(=O)N[C@@H](C(C)C)C(=O)N3)C(=O)N[C@@H](Cc1c[nH]cn1)C(=O)N[C@@H](CC(N)=O)C(=O)N[C@@H](Cc1c[nH]cn1)C(=O)N2 [Y25H] (H-GFGCNGPWDEDDMQCHNHCKSIKGHKGGYCAKGGFVCKCY-OH; disulfide 4-30, 15-37, 19-39 (inferred); N-terminus and C-terminus assumed) | ≤ 0.78 µg/mL |
| CC[C@H](C)[C@@H]1NC(=O)CNC(=O)[C@H](CCCCN)NC(=O)[C@H]([C@@H](C)CC)NC(=O)[C@H](CO)NC(=O)[C@H](CCCCN)NC(=O)[C@@H]2CSSC[C@@H](C(=O)N[C@@H](Cc3ccc(O)cc3)C(=O)O)NC(=O)[C@H](CCCCN)NC(=O)[C@@H]3CSSC[C@H](NC(=O)[C@H](CCC(N)=O)NC(=O)[C@H](CCSC)NC(=O)[C@H](CC(=O)O)NC(=O)[C@H](CC(=O)O)NC(=O)[C@H](CCC(=O)O)NC(=O)[C@H](CC(=O)O)NC(=O)[C@H](Cc4c[nH]c5ccccc45)NC(=O)[C@@H]4CCCN4C(=O)CNC(=O)[C@H](CC(N)=O)NC(=O)[C@@H](NC(=O)CNC(=O)[C@H](Cc4ccccc4)NC(=O)CN)CSSC[C@H](NC(=O)[C@H](Cc4ccc(O)cc4)NC(=O)CNC(=O)CNC(=O)[C@H](CCCCN)NC1=O)C(=O)N[C@@H](C)C(=O)N[C@@H](CCCCN)C(=O)NCC(=O)NCC(=O)N[C@@H](Cc1ccccc1)C(=O)N[C@@H](C(C)C)C(=O)N3)C(=O)N[C@@H](Cc1c[nH]cn1)C(=O)N[C@@H](CC(N)=O)C(=O)N[C@@H](Cc1c[nH]cn1)C(=O)N2 [Y25I] (H-GFGCNGPWDEDDMQCHNHCKSIKGIKGGYCAKGGFVCKCY-OH; disulfide 4-30, 15-37, 19-39 (inferred); N-terminus and C-terminus assumed) | 6,25 μg/mL |
| CC[C@H](C)[C@@H]1NC(=O)[C@H](CO)NC(=O)[C@H](CCCCN)NC(=O)[C@@H]2CSSC[C@@H](C(=O)N[C@@H](Cc3ccc(O)cc3)C(=O)O)NC(=O)[C@H](CCCCN)NC(=O)[C@@H]3CSSC[C@H](NC(=O)[C@H](CCC(N)=O)NC(=O)[C@H](CCSC)NC(=O)[C@H](CC(=O)O)NC(=O)[C@H](CC(=O)O)NC(=O)[C@H](CCC(=O)O)NC(=O)[C@H](CC(=O)O)NC(=O)[C@H](Cc4c[nH]c5ccccc45)NC(=O)[C@@H]4CCCN4C(=O)CNC(=O)[C@H](CC(N)=O)NC(=O)[C@@H](NC(=O)CNC(=O)[C@H](Cc4ccccc4)NC(=O)CN)CSSC[C@H](NC(=O)[C@H](Cc4ccc(O)cc4)NC(=O)CNC(=O)CNC(=O)[C@H](CCCCN)NC(=O)[C@H](CC(C)C)NC(=O)CNC(=O)[C@H](CCCCN)NC1=O)C(=O)N[C@@H](C)C(=O)N[C@@H](CCCCN)C(=O)NCC(=O)NCC(=O)N[C@@H](Cc1ccccc1)C(=O)N[C@@H](C(C)C)C(=O)N3)C(=O)N[C@@H](Cc1c[nH]cn1)C(=O)N[C@@H](CC(N)=O)C(=O)N[C@@H](Cc1c[nH]cn1)C(=O)N2 [Y25L] (H-GFGCNGPWDEDDMQCHNHCKSIKGLKGGYCAKGGFVCKCY-OH; disulfide 4-30, 15-37, 19-39 (inferred); N-terminus and C-terminus assumed) | 3,13 μg/mL |
